Laboratory results from patent publication US20080004253A1, “Thiazolopyrimidine modulators of TRPV1” (priority 2006, published 2008).

Columns and labels:
rat TRPV1 = target: T1, rat TRPV1 (Rattus norvegicus, UniProt O35433); experiment: Functional assay: block of capsaicin-induced Ca2+ influx, rat assay (rTRPV1/HEK293, FLIPR); format: cell-based; conditions: rTRPV1/HEK293 cells, capsaicin challenge, Fluo-3 fluorescence; mean; > value = solubility limit in assay medium
T1 construct: expressed in transfected cells; host or cells: HEK293 (rTRPV1/HEK293), geneticin selection
Outline: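 Compounds, as free base or TFA salt, tested from 10 μM in three-fold steps on rTRPV1-transfected HEK293 cells, with 30 min preincubation in low-calcium (20 μM) buffer. Capsaicin-evoked Ca2+ influx measured by FLIPR fluo3 signal before and 100 s after addition. Averaged IC50 from non-linear fits.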

human TRPV1 = target: T2, human TRPV1 (Homo sapiens, UniProt Q8NER1); experiment: Functional assay: block of capsaicin-induced Ca2+ influx, human assay (hTRPV1/HEK293, FLIPR); format: cell-based; conditions: hTRPV1/HEK293 cells, 150 nM capsaicin challenge, Fluo-3 fluorescence; mean; > value = solubility limit in assay medium
T2 construct: expressed in transfected cells; host or cells: HEK293 (hTRPV1/HEK293), zeocin selection
Outline: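 HEK293 cells stably expressing human TRPV1, fluo3-loaded, preincubated 30 min with compound (serial 3-fold dilutions from 10 μM, duplicate) in 20 μM Ca2+ buffer. Capsaicin response taken as fluo3 fluorescence change before vs 100 s after agonist; IC50 by non-linear regression, mean values; free base or TFA salt.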

T1 sequence (O35433 whole entry): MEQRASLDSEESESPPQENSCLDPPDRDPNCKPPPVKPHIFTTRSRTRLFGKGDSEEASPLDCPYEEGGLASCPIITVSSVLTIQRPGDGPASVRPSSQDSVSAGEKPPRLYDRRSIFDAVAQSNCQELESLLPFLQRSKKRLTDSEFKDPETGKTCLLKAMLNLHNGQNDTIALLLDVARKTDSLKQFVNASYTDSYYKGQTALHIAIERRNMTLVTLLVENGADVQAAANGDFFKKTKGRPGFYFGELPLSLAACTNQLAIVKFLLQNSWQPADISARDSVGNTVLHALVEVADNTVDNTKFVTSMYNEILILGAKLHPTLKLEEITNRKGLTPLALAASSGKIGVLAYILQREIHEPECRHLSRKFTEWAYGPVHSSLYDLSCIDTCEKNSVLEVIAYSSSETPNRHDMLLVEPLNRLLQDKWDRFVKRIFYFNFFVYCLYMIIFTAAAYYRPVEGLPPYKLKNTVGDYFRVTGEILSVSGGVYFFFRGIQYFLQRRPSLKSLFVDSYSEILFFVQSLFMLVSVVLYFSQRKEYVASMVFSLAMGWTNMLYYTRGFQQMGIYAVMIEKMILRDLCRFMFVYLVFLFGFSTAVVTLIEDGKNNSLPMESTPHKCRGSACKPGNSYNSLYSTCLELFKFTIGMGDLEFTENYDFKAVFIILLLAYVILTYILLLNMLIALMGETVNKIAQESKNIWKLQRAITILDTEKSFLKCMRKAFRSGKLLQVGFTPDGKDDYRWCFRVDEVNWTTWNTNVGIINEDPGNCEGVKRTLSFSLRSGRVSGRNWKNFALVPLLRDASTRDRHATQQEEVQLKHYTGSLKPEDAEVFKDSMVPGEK
T2 sequence (Q8NER1 whole entry): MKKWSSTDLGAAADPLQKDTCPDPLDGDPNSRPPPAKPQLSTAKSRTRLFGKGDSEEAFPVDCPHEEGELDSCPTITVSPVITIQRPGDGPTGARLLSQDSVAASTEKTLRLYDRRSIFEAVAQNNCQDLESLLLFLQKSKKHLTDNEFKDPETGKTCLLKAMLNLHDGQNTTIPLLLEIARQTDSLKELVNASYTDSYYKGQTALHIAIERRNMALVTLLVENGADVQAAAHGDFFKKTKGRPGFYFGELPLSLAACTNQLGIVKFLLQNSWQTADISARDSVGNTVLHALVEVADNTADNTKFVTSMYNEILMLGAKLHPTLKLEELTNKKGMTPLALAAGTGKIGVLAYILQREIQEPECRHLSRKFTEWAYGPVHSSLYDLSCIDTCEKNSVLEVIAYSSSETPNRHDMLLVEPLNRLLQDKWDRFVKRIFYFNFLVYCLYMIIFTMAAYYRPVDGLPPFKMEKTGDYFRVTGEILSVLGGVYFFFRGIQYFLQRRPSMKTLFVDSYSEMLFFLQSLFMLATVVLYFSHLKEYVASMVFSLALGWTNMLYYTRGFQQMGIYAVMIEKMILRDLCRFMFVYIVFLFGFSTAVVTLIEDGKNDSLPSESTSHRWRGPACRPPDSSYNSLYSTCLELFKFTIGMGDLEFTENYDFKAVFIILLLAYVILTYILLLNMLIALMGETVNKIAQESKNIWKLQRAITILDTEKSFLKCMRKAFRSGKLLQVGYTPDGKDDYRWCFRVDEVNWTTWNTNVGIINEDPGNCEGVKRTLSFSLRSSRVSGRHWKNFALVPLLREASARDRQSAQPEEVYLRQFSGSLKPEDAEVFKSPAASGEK

Row | Compound | IC50 (rat TRPV1) [nM] | IC50 (human TRPV1) [nM]
1 | Cc1cccc(C)c1Nc1nc2c(Nc3ccc(C(F)(F)F)c(Cl)c3)ncnc2s1 [Example 13, N^7-(3-Chloro-4-trifluoromethyl-phenyl)-N^2-(2,6-dimethyl-phenyl)-thiazolo[5,4-d]pyrimidine-2,7-diamine] | 34 | 113
2 | CS(=O)(=O)c1ccccc1Nc1nc2c(Nc3ccc(S(=O)(=O)C(F)(F)F)cc3)ncnc2s1 [Example 200, N^2-(2-Methanesulfonyl-phenyl)-N^7-(4-trifluoromethanesulfonyl-phenyl)-thiazolo[5,4-d]pyrimidine-2,7-diamine] | 874 | 386
3 | CS(=O)(=O)c1ccc(Nc2ncnc3sc(Nc4c(Cl)cccc4Cl)nc23)cc1F [Example 82, N^2-(2,6-Dichloro-phenyl)-N^7-(3-fluoro-4-methanesulfonyl-phenyl)-thiazolo[5,4-d]pyrimidine-2,7-diamine] | 1 | 5
4 | CC1CCCN1c1nc(Nc2ccc(S(C)(=O)=O)cc2)c2nc(Nc3c(Cl)cccc3Cl)sc2n1 (racemic) [Example 117, (racemic)-N^2-(2,6-Dichloro-phenyl)-N^7-(4-methanesulfonyl-phenyl)-5-(2-methyl-pyrrolidin-1-yl)-thiazolo[5,4-d]pyrimidine-2,7-diamine] | 7 | 50
5 | Cc1nc(Nc2ccc(C(F)(F)F)c(Cl)c2)c2nc(Nc3c(Cl)cccc3Cl)sc2n1 [Example 30, N^7-(3-Chloro-4-trifluoromethyl-phenyl)-N^2-(2,6-dichloro-phenyl)-5-methyl-thiazolo[5,4-d]pyrimidine-2,7-diamine] | 3 | 3
6 | CS(=O)(=O)c1nc(Nc2ccc(C(F)(F)F)cc2)c2nc(Nc3c(Cl)cccc3Cl)sc2n1 [Example 53, N^2-(2,6-Dichloro-phenyl)-5-methanesulfonyl-N^7-(4-trifluoromethyl-phenyl)-thiazolo[5,4-d]pyrimidine-2,7-diamine] | 93 | 196
7 | CS(=O)(=O)c1ccccc1Nc1nc2c(Nc3ccc(C(F)(F)F)cc3)ncnc2s1 [Example 201, N^2-(2-Methanesulfonyl-phenyl)-N^7-(4-trifluoromethyl-phenyl)-thiazolo[5,4-d]pyrimidine-2,7-diamine] | 244 | 257
8 | CN(C)c1nc(Nc2ccc(C(F)(F)F)cc2)c2nc(Nc3c(Cl)cccc3Cl)sc2n1 [Example 56, N^2-(2,6-Dichloro-phenyl)-N^5,N^5-dimethyl-N^7-(4-trifluoromethyl-phenyl)-thiazolo[5,4-d]pyrimidine-2,5,7-triamine] | 44 | 32
9 | Cc1cccc(C)c1Nc1nc2c(Nc3ccc(N(C)S(C)(=O)=O)cc3)ncnc2s1 [Example 161, N-{4-[2-(2,6-Dimethyl-phenylamino)-thiazolo[5,4-d]pyrimidin-7-ylamino]-phenyl}-N-methyl-methanesulfonamide] | 2290 | 3780
10 | Cc1ccccc1Nc1nc2c(Nc3ccc(S(=O)(=O)N4CCOCC4)cc3)ncnc2s1 [Example 217, N^2-(2-Methylphenyl)-N^7-[4-(morpholin-4-ylsulfonyl)phenyl][1,3]thiazolo[5,4-d]pyrimidine-2,7-diamine] | 4 | 8
11 | Cc1cccnc1Nc1nc2c(Nc3ccc(C(F)(F)F)cc3)ncnc2s1 [Example 213, N^2-(3-Methyl-pyridin-2-yl)-N^7-(4-trifluoromethyl-phenyl)-thiazolo[5,4-d]pyrimidine-2,7-diamine] | ≥ 6670 | ≥ 6670
12 | FC(F)(F)c1ccc(Nc2nc(-c3ccccc3)nc3sc(Nc4c(Cl)cccc4Cl)nc23)cc1 [Example 70, N^2-(2,6-Dichloro-phenyl)-5-phenyl-N^7-(4-trifluoromethyl-phenyl)-thiazolo[5,4-d]pyrimidine-2,7-diamine] | 83 | 225
13 | Cc1ccc(Nc2nc(C)nc3sc(Nc4c(C)cccc4C)nc23)cc1 [Example 138, N^2-(2,6-Dimethyl-phenyl)-5-methyl-N^7-p-tolyl-thiazolo[5,4-d]pyrimidine-2,7-diamine] | 128 | 271

The remaining molecules from weak to strong by IC50 (rat TRPV1), led by results:

Row | IC50 (rat TRPV1) [nM] | IC50 (human TRPV1) [nM] | Compound
14 | 135 | 567 | CS(=O)(=O)c1ccc(Nc2ncnc3sc(Nc4ccccc4C(F)(F)F)nc23)cc1 [Example 226, N^7-[4-(Methylsulfonyl)phenyl]-N^2-[2-(trifluoromethyl)phenyl][1,3]thiazolo[5,4-d]pyrimidine-2,7-diamine]
15 | 39 | 92 | FC(F)(F)c1ccc(Nc2ncnc3sc(Nc4ccccc4Cl)nc23)cc1 [Example 16, N^2-(2-Chloro-phenyl)-N^7-(4-trifluoromethyl-phenyl)-thiazolo[5,4-d]pyrimidine-2,7-diamine]
16 | 18 | 28 | O=S(=O)(c1ccc(Nc2ncnc3sc(Nc4ccccc4Cl)nc23)cc1)N1CCCC1 [Example 109, N^2-(2-Chloro-phenyl)-N^7-[4-(pyrrolidine-1-sulfonyl)-phenyl]-thiazolo[5,4-d]pyrimidine-2,7-diamine]
17 | 16 | 67 | Cc1cccc(C)c1Nc1nc2c(Nc3ccc(SC(F)(F)F)cc3)ncnc2s1 [Example 40, N^2-(2,6-Dimethyl-phenyl)-N^7-(4-trifluoromethylsulfanyl-phenyl)-thiazolo[5,4-d]pyrimidine-2,7-diamine]
18 | 12 | 18 | CC(C)Nc1nc(Nc2ccc(C(F)(F)F)cc2)c2nc(Nc3c(Cl)cccc3Cl)sc2n1 [Example 101, N^2-(2,6-Dichloro-phenyl)-N^5-isopropyl-N^7-(4-trifluoromethyl-phenyl)-thiazolo[5,4-d]pyrimidine-2,5,7-triamine]
19 | 8 | 15 | FC(F)(F)c1ccc(Nc2ncnc3sc(Nc4c(Cl)cccc4Cl)nc23)cc1Cl [Example 4, N^7-(3-Chloro-4-trifluoromethyl-phenyl)-N^2-(2,6-dichloro-phenyl)-thiazolo[5,4-d]pyrimidine-2,7-diamine]
20 | 7 | 10 | Cc1nc(Nc2ccc(S(C)(=O)=O)cc2)c2nc(Nc3c(C)cccc3C)sc2n1 [Example 95, N^2-(2,6-Dimethyl-phenyl)-N^7-(4-methanesulfonyl-phenyl)-5-methyl-thiazolo[5,4-d]pyrimidine-2,7-diamine]
21 | 2 | 25 | Cc1nc(Nc2ccc3c(c2)N(C)CCC3(C)C)c2nc(Nc3c(Cl)cccc3Cl)sc2n1 [Example 107, N^2-(2,6-Dichloro-phenyl)-5-methyl-N^7-(1,4,4-trimethyl-1,2,3,4-tetrahydro-quinolin-7-yl)-thiazolo[5,4-d]pyrimidine-2,7-diamine]
22 | 1 | 1 | CN(C)S(=O)(=O)c1ccc(Nc2ncnc3sc(Nc4c(Cl)cccc4Cl)nc23)cc1 [Example 75, 4-[2-(2,6-Dichloro-phenylamino)-thiazolo[5,4-d]pyrimidin-7-ylamino]-N,N-dimethyl-benzenesulfonamide]
23 | 1 | 2 | CC(C)CNc1nc(Nc2ccc(C(F)(F)F)cc2)c2nc(Nc3c(Cl)cccc3Cl)sc2n1 [Example 79, N^2-(2,6-Dichloro-phenyl)-N^5-isobutyl-N^7-(4-trifluoromethyl-phenyl)-thiazolo[5,4-d]pyrimidine-2,5,7-triamine]
